Like-named read-outs stand apart in the source and are kept apart here. Where a SMILES comes first, the peptide text is derived from it. Where no end group is shown, it is not given here.
What was measured:
[1] = Saline solubility of heptapeptides; assay type: physicochemical
Experimental: Heptapeptides A-K shown below in Table 1 (SEQ ID NOs: 1-11) were synthesized according to standard Fmoc-mediated solid-phase techniques and purified under typical C18 reverse-phase conditions.
Compounds D-K were considered to be insoluble in saline (<1 mg/mL).

[2] = molecular target: T1, human NK2 Receptor (hNK2R) (Homo sapiens, UniProt P21452); assay: [125I]-NKA radioligand competition binding to human recombinant NK2Rs (CHO-hNK2 membranes); settings: for hNK2 selectivity ratio: ratio of Kis hNK1R/hNK2R
T1 sequence (P21452 1-398): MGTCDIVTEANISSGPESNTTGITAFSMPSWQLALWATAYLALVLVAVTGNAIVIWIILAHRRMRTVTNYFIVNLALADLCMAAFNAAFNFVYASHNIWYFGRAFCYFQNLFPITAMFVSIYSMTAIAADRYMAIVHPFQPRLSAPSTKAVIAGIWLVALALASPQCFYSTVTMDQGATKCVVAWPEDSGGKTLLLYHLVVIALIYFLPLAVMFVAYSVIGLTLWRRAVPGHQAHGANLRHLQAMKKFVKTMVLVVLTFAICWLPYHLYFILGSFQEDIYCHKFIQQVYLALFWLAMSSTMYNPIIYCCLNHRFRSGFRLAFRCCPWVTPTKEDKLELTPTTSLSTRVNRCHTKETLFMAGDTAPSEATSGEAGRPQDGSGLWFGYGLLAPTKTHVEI
Experimental: (§1) After removal of the supernatant the cell pellet was washed and collected by re-suspension in PBS and centrifugation.
(§2) Frozen pellets were thawed and homogenized in 10 volumes (w/v) of membrane preparation buffer (50 mM HEPES pH 7.4, 1 mM EDTA, 50 μg/mL bacitracin and protease inhibitors) using a Polytron Ultraturrax (twice for 15 s per cycle). […] Protein concentration was determined using BioRad Protein Assay (Milan, Italy) with a BSA standard curve.

[3] = molecular target: human NK1 Receptor (hNK1R) (Homo sapiens, UniProt P25103); assay: [3H]-septide radioligand competition binding to human recombinant NK1Rs (CHO-hNK1 membranes)
Chain of human NK1 Receptor (hNK1R) (P25103 whole entry): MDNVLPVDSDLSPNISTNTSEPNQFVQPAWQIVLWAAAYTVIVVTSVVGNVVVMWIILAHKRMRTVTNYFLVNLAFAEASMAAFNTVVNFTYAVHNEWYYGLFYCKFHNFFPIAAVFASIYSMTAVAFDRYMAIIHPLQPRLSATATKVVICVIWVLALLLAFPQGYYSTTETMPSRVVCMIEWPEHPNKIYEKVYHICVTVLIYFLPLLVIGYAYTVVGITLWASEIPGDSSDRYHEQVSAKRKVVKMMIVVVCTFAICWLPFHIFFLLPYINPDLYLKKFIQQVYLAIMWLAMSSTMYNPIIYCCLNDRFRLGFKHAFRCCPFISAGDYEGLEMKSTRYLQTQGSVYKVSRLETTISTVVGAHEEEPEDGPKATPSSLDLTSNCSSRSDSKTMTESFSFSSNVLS
Experimental: as §1, §2

[4] = molecular target: T2, recombinant hNK2R expressed in CHO cells (Homo sapiens, UniProt P21452); assay: Intracellular calcium mobilization (FLIPR) in CHO-hNK2 cells; assay type: cell-based; settings: for hNK2 selectivity ratio: ratio of EC50s hNK1R/hNK2R
T2 sequence (P21452 1-398): T1 sequence (P21452 1-398)
Experimental: (§3) CHO-hNK1 and CHO-hNK2 cells were seeded into black walled clear-bottom 384-well plates) at a density of 10,000 and 15,000 cells per well in 50 μL culture media, respectively, and grown overnight at 37° C. in a humidified CO2-incubator. Cells were washed in washing buffer using the EMBLA 384 instrument, leaving 20 μL of buffer per well after the final aspiration. Cells were then incubated at 37° C. with the cytoplasmic Ca2+ indicator Fluo-4 AM (final concentration 1 μM) in assay buffer (20 mM HEPES, 145 mM NaCl, 5 mM KCl, 5.5 mM glucose, 1 mM MgCl2 and 2 mM CaCl2, pH 7.4, 0.05% Pluronic F-127 and 0.1% BSA) containing 2.5 mM probenecid for […] (cell loading). Cells were then washed 3 times in washing buffer (20 mM HEPES, 145 mM NaCl, 5 mM KCl, 5.5 mM glucose, 1 mM MgCl2 and 2 mM CaCl2, pH 7.4 and 2.5 mM probenecid) using the EMBLA 384 instrument, leaving 30 μL of buffer in each well after the last wash. Loaded cell plates were transferred to the FLIPR machine and calcium responses were monitored as described below. A dual read-out FLIPR protocol was used, allowing for characterization of both agonist and antagonist profiles. For quality control, in each compound plate the signal was monitored by evaluating the responses to the reference standards (NKA and Substance P).
(§4) Concentration response curves of compounds were run in duplicate on two different occasions from the same stock solutions. Test solutions were prepared from 10 mM stock solutions in DMSO and 1 μL of each solution was stamped into V-bottom assay plates containing 49 μL assay buffer. The final concentration of DMSO was 0.5% in each well.

[5] = molecular target: recombinant hNK1R expressed in CHO cells (Homo sapiens, UniProt P25103); assay: Intracellular calcium mobilization (FLIPR) in CHO-hNK1 cells; assay type: cell-based
Chain of recombinant hNK1R expressed in CHO cells (P25103 whole entry): as above
Experimental: as §3, §4

[6] = Pharmacokinetics in rat plasma after cassette IV bolus dosing; settings: Sprague-Dawley, in vivo
Experimental: The concentrations of compounds (SEQ ID NOS: 1-11) were measured in rat plasma after intravenous (IV) bolus dosing to determine pharmacokinetic profiles of individual compounds.
Animal preparation: In vivo studies were performed in anesthetized adult Sprague Dawley rats. Rats were anesthetized with urethane (1.2-1.4 g/kg subcutaneous injection). Surgical procedures were then performed with the addition of isoflurane anesthesia (0.05-1.5% in 02) as needed. A venous cannula was inserted into the jugular vein for intravenous (IV) administration of compounds.
In vivo dosing and plasma sampling: Compounds were divided into two groups (soluble and insoluble). Each group was dosed as a cassette in which four compounds (100 μg/kg each compound) were combined into a single IV bolus injection to anesthetized adult Sprague-Dawley rats. Soluble compounds were dissolved in saline. Insoluble compounds were dissolved in a 10% ethanol/saline solution. Rats were cassette dosed based on weight using 0.1 mg/mL solutions of individual compounds. Blood samples (700 μL) were collected using a carotid artery cannula into EDTA tubes containing ascorbic acid (final concentration 1%), and plasma was isolated.
Bioanalytical assay: A reversed-phase HPLC with Turbo Ion Spray MS/MS detection method was developed for bioanalysis. Mass spec transition and settings were individually optimized for each compound and then compounds were cassetted for HPLC method development and optimization. [^13C9; ^15N] [Lys5,MeLeu9,Nle10]-NKA(4-10) was used as an internal standard (IS). Analyte-to-IS peak area ratios for individual compounds were used to create linear calibration curves (1-20 ng/mL) using 1/×2 weighted least-squares regression analysis for evaluation of method linearity, precision and accuracy. For plasma concentration measurements, plasma samples were spiked with IS, processed by extraction, and analyzed using LC-MS/MS. Positive (M+H)+ ions for individual compounds and IS were monitored in MRM mode.

[7] = test system: anesthetized dog; assay: Colorectal pressure manometry in anesthetized dog; assay type: in vivo
Experimental: Animal preparation: Naïve beagle dogs were fasted for 12-24 hours and received a warm water enema the night prior to, and the morning of, the experiment to clear the rectum and lower colon of feces. The day of the experiment, a 20 gauge IV catheter (Terumo Surflo) was placed in the cephalic vein for anesthetic induction (propofol, 10 mg/kg; IV) and delivery of IV fluids (5-10 ml/kg/hr) and compounds. The sedated dog was intubated with a 5-6 Fr tracheal tube and was maintained on 2-3% isoflurane via a ventilator (15-25 breaths/min; tidal volume […]) for the remainder of the experiment.
Bowel contractility: For colorectal pressure manometry, an ˜3 inch balloon catheter was inserted into the rectum and secured to the tail with tape. This catheter was connected via a three-way stopcock to a pressure transducer (UTAH MEDICAL PRODUCTS; DelTran II) for pressure recording. Data were recorded using PowerLab/8SP acquisition system using LabChart software (version 7.3.7; ADINSTRUMENTS, Australia). Arterial pressure, ECG, temperature and blood oxygen saturation (spO2) were monitored throughout the experiment (MEDTRONIC LIFEPAK12). Dogs were recovered in a quiet room under veterinary supervision.

[8] = displacement of 0.1 nM [125I]-NKA, CHO-hNK2 membranes, read-out: hNK2 binding Ki
[9] = displacement of 5.0 nM [3H]-septide, CHO-hNK1 membranes, read-out: hNK1 binding Ki
[10] = calcium mobilization, CHO-hNK2 cells, read-out: hNK2 EC50
[11] = calcium mobilization, CHO-hNK1 cells, read-out: hNK1 EC50

Ki [2, 8] [nM] | Ki [3, 9] [nM] | half-life ([6]; iv) [min] | Molecule | solubility [1] [µg/mL] | Ki [2] [nM] | hNK2 selectivity ratio [2] | Ki [3] [nM] | EC50 [4] [nM] | hNK2 selectivity ratio [4] | EC50 [5] [nM] | level at 10 min ([6]; 100 ug/kg, cassette IV bolus 100 μg/kg, by 10 min post-dose, read-out: plasma concentration) [ng/mL] | half-life ([6]; cassette IV bolus, 100 μg/kg each compound, read-out: plasma t1/2) [min] | EC50 [4, 10] [nM] | EC50 [5, 11] [nM] | duration of colorectal pressure response ([7]; IV bolus (B and E 3 μg/kg; G 3, 30 and 66 ug/kg)) | onset of increase in colorectal pressure ([7]; IV bolus (E 3 μg/kg; G 3, 30 and 66 ug/kg)) [min]
– | – | – | CSCC[C@H](NC(=O)[C@H](CC(C)C)N(C)C(=O)CNC(=O)[C@@H](NC(=O)[C@H](Cc1ccccc1)NC(=O)[C@H](CCCCN)NC(=O)[C@@H](N)CC(=O)O)C(C)C)C(N)=O [A, Asp-Lys-Phe-Val-Gly-(NMe-Leu)-Met-NH2] | > 20000 | 0.2 | 248.89 | 50.1 | 0.14 | 7 | 0.95 | < 1 | 0.2 to 1.2 | – | – | – | –
0.12 | 20.9 | – | CSCC[C@H](NC(=O)[C@H](CC(C)C)N(C)C(=O)CNC(=O)[C@@H](NC(=O)[C@H](Cc1ccccc1)NC(=O)[C@H](CCCNC(=N)N)NC(=O)[C@@H](N)CC(=O)O)C(C)C)C(N)=O [C, Asp-Arg-Phe-Val-Gly-(NMe-Leu)-Met-NH2] (HELM PEPTIDE1{D.R.F.V.G.[meL].M.[am]}$$$$V2.0; N-terminus assumed) | > 20000 | – | 167.49 | – | – | 2 | – | – | – | 0.16 | 0.3 | – | –
2.11 | 257 | 3.3 to 4.7 | CSCC[C@H](NC(=O)[C@H](CC(C)C)NC(=O)CCNC(=O)[C@@H](NC(=O)[C@H](Cc1ccccc1)NC(=O)[C@H](CCCCN)NC(=O)[C@@H](N)CC(=O)O)C(C)C)C(N)=O [Compound E, Asp-Lys-Phe-Val-(β-Ala)-Leu-Met-NH2] (HELM PEPTIDE1{D.K.F.V.[bAla].L.M.[am]}$$$$V2.0; N-terminus assumed) | < 1000 | – | 122.04 | – | – | 36 | – | – | – | 0.18 | 6.31 | approximately 4 minutes | ≤ 1
– | – | – | CSCC[C@H](NC(=O)[C@H](CC(C)C)NC(=O)CNC(=O)[C@@H](NC(=O)[C@H](Cc1ccccc1)NC(=O)[C@H](CCCCN)NC(=O)[C@@H](N)CC(=O)O)C(C)C)C(N)=O [D, Asp-Lys-Phe-Val-Gly-Leu-Met-NH2] | < 1000 | – | – | – | – | – | – | – | – | 0.09 | 0.41 | – | –
– | – | – | CCCC[C@H](NC(=O)[C@H](CC(C)C)NC(=O)CNC(=O)[C@@H](NC(=O)[C@H](Cc1ccccc1)NC(=O)[C@H](CCCCN)NC(=O)[C@@H](N)CC(=O)O)C(C)C)C(N)=O [F, Asp-Lys-Phe-Val-Gly-Leu-Nle-NH2] | < 1000 | 2.75 | 81.47 | 224 | – | 6 | – | – | – | 0.38 | 2.36 | – | –
0.88 | 95.5 | – | CSCC[C@H](NC(=O)[C@H](CC(C)C)NC(=O)CCNC(=O)[C@@H](NC(=O)[C@H](Cc1ccccc1)NC(=O)[C@H](CCCNC(=N)N)NC(=O)[C@@H](N)CC(=O)O)C(C)C)C(N)=O [I, Asp-Arg-Phe-Val-(β-Ala)-Leu-Met-NH2] (HELM PEPTIDE1{D.R.F.V.[bAla].L.M.[am]}$$$$V2.0; N-terminus assumed) | < 1000 | – | 108.27 | – | – | 12 | – | – | – | 0.15 | 1.83 | – | –
– | – | – | CCCC[C@H](NC(=O)[C@H](CC(C)C)NC(=O)CNC(=O)[C@@H](NC(=O)[C@H](Cc1ccccc1)NC(=O)[C@H](CCCNC(=N)N)NC(=O)[C@@H](N)CC(=O)O)C(C)C)C(N)=O [J, Asp-Arg-Phe-Val-Gly-Leu-Nle-NH2] (HELM PEPTIDE1{D.R.F.V.G.L.[Nle].[am]}$$$$V2.0; N-terminus assumed) | < 1000 | 1.74 | 72.53 | 126 | – | 9 | – | – | – | 0.2 | 1.71 | – | –
6.85 | 1200 | 3.3 to 4.7 | CCCC[C@H](NC(=O)[C@H](CC(C)C)NC(=O)CCNC(=O)[C@@H](NC(=O)[C@H](Cc1ccccc1)NC(=O)[C@H](CCCNC(=N)N)NC(=O)[C@@H](N)CC(=O)O)C(C)C)C(N)=O [K, Asp-Arg-Phe-Val-(β-Ala)-Leu-Nle-NH2] (HELM PEPTIDE1{D.R.F.V.[bAla].L.[Nle].[am]}$$$$V2.0; N-terminus assumed) | < 1000 | – | 175.59 | – | – | 25 | – | – | – | 1.16 | 29.5 | – | –
– | – | – | DRFVGLM-NH2 [H, Asp-Arg-Phe-Val-Gly-Leu-Met-NH2] | < 1000 | 0.31 | 27.10 | 8.32 | – | 0.8 | – | – | – | 0.19 | 0.16 | – | –
